Results taken from patent publication US11008314B2, “Compounds and methods for modulating interleukin-2-inducible t-cell kinase” (CORVUS PHARMACEUTICALS, INC., priority 2016, dated 2021).

How the values were obtained:
Type in all cases: biochemical
[1] = molecular target: ITK (Homo sapiens (Human), UniProt Q08881); assay: IC50 against ITK
[2] = molecular target: JAK3 (Homo sapiens (Human), UniProt P52333); assay: IC50 against JAK3
[3] = molecular target: BTK (Homo sapiens (Human), UniProt Q06187); assay: IC50 against BTK
Sequence of BTK (Q06187 whole entry, species assumed): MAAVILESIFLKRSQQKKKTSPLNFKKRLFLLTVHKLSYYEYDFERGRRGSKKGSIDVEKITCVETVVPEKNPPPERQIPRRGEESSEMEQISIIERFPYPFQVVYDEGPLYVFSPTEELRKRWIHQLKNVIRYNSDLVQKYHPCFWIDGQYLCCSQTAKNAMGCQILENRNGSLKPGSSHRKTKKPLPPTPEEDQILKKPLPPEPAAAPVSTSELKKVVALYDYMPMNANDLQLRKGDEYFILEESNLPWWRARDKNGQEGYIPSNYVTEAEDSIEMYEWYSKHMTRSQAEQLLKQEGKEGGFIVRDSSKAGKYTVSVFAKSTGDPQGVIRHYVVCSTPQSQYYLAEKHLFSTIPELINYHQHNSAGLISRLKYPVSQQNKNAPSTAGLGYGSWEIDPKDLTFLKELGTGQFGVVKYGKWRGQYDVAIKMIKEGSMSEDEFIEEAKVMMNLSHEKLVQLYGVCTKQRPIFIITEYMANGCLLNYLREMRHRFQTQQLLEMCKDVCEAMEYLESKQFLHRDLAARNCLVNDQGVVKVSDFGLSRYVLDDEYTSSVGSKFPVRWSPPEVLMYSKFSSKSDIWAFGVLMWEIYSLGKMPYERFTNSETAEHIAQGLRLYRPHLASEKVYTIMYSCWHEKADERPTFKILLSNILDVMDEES

[4] = molecular target: TXK (Homo sapiens (Human), UniProt P42681); assay: IC50 against TXK; conditions: for TXK/ITK: ratio of TXK IC50 to ITK IC50
Sequence of TXK (P42681 whole entry, species assumed): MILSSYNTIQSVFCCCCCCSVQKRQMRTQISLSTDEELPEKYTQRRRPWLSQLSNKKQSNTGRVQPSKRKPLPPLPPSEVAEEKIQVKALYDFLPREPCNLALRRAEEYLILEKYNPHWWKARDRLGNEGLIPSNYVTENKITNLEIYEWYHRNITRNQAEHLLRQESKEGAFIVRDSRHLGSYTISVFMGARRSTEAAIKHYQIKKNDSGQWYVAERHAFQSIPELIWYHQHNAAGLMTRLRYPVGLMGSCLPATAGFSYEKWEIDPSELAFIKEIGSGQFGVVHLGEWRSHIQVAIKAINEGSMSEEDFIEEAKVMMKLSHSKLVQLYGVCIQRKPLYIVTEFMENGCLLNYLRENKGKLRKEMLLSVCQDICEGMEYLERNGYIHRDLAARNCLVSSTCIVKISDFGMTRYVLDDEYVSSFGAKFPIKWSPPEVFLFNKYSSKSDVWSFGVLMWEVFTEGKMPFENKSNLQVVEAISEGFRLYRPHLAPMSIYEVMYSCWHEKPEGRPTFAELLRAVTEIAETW

Sequence of ITK (Q08881 whole entry): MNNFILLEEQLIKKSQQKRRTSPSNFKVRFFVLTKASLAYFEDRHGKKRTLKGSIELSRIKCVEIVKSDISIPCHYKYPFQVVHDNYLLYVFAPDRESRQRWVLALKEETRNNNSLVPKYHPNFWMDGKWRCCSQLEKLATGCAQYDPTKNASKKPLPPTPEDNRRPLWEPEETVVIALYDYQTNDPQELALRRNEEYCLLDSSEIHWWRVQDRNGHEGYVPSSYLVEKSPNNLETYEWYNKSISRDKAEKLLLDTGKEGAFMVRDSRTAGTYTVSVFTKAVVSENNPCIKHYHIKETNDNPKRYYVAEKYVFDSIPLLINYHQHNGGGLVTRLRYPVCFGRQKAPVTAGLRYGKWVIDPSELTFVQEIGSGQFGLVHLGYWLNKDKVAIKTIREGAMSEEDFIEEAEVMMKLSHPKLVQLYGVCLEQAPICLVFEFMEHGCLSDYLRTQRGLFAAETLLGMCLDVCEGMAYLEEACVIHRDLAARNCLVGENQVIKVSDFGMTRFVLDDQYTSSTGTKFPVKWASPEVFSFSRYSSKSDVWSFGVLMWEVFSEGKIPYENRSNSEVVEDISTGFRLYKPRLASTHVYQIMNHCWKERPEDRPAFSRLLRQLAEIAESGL
Sequence of JAK3 (P52333 whole entry, species assumed): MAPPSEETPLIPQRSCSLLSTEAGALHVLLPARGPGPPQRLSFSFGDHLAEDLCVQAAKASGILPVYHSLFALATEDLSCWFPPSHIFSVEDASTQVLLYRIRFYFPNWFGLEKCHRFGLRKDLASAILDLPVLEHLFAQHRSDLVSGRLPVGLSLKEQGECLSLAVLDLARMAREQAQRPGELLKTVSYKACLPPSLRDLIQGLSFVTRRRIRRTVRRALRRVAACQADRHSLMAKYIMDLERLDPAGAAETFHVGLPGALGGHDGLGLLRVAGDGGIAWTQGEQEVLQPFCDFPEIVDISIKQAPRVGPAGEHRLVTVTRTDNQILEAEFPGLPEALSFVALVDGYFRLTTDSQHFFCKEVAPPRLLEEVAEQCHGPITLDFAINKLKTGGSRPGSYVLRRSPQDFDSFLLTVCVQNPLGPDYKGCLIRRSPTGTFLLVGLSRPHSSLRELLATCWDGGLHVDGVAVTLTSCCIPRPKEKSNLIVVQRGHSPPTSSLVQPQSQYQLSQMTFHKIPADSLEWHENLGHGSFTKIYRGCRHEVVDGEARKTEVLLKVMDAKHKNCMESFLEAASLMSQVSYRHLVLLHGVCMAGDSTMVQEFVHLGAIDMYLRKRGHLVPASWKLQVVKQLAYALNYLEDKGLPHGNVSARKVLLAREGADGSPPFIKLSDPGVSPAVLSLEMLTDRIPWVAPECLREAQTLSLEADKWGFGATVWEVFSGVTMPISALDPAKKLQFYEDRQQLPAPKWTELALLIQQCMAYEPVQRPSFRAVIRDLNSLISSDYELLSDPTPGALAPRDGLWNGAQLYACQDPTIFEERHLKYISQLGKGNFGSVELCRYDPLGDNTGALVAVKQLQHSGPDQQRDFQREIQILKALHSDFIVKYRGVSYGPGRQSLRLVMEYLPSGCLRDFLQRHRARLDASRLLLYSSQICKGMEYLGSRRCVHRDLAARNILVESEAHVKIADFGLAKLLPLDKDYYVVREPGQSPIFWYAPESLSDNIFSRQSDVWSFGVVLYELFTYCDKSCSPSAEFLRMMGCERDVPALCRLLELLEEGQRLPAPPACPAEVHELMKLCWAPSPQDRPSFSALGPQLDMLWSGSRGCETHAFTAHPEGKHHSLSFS

Row | SMILES | IC50 [1] [nM] | IC50 [2] [nM] | IC50 [3] [nM] | IC50 [4] [nM] | TXK/ITK [4]
1 | C=CC(=O)N1CC[C@@H](N(C)C(=O)c2cc(Sc3cnc(NC(=O)c4ccsc4)s3)c(C)cc2OC)C1 [Compound 146, (R)-N-(5-((5-((1-acryloylpyrrolidin-3-yl)(methyl)carbamoyl)-4-methoxy-2-methylphenyl)thio)thiazol-2-yl)thiophene-3-carboxamide] | < 10 | < 10 | < 10 | < 10 | 3.19
2 | C=CC(=O)N1CCCN(C(=O)c2cc(Sc3cnc(NC(=O)C4CC4)s3)c(Cl)cc2C)C[C@H]1C [Compound 62] | < 10 | 1000 to 10000 | 1000 to 10000 | 1000 to 10000 | 320.16
3 | C=CC(=O)N1CCN(C(=O)c2cc(Sc3cnc(NC(=O)C4CC4)s3)c(C)cc2C)C[C@H]1CC [Compound 100] | < 10 | 100 to 1000 | 1000 to 10000 | 10 to 100 | 8.8107
4 | C=CC(=O)N1CCN(C(=O)c2cc(Sc3cnc(NC(=O)C4CC4)s3)c(C)cc2CC)C[C@H]1CC [Compound 104] | < 10 | 100 to 1000 | 100 to 1000 | 10 to 100 | 3.6
5 | C=CC(=O)N1CCN(C(=O)c2cc(Sc3cnc(NC(=O)C4CC4)s3)c(C)cc2C(F)(F)F)C[C@H]1C [Compound 69] | 100 to 1000 | 1000 to 10000 | ≥ 10000 | 100 to 1000 | 4.9369
6 | C=CC(=O)N1CCCN(C(=O)c2cc(Sc3cnc(NC(=O)C4CC4)s3)ccc2OC)C[C@H]1C [Compound 77] | 10 to 100 | 1000 to 10000 | ≥ 10000 | 1000 to 10000 | 95.398
7 | C=CC(=O)N1CCCN(C(=O)c2cc(Sc3cnc(NC(=O)c4cnsc4)s3)c(C)cc2OC)C[C@H]1CC [Compound 121] | < 10 | 1000 to 10000 | 100 to 1000 | 100 to 1000 | 146.1
8 | C=CC(=O)N1CCCN(C(=O)c2cc(Sc3cnc(NC(=O)C4CC4)s3)c(C)cc2CC)C[C@H]1C [Compound 105] | < 10 | 1000 to 10000 | 100 to 1000 | 100 to 1000 | 12.3
9 | C=CC(=O)N1CCCN(C(=O)c2cc(Sc3cnc(NC(=O)C4CC4)s3)c(C)cc2OC)C[C@H]1CC [Compound 111] | < 10 | 1000 to 10000 | 100 to 1000 | 100 to 1000 | 81.1
10 | C=CC(=O)N1CCCN(C(=O)c2cc(Sc3cnc(Nc4ncccc4C)s3)c(C)cc2OC)C[C@H]1C [Compound 136] | < 10 | 100 to 1000 | 10 to 100 | 10 to 100 | 42
11 | C=CC(=O)N1CCCN(C(=O)c2cc(C)c(C)c(Sc3cnc(NC(=O)C4CC4)s3)c2)C[C@H]1C [Compound 64] | 100 to 1000 | ≥ 10000 | ≥ 10000 | 1000 to 10000 | 11.944
12 | C=CC(=O)N1CCN(C(=O)c2cc(Sc3cnc(NC(=O)c4ccsc4)s3)c(C)cc2C)C[C@H]1CC [Compound 130] | < 10 | 100 to 1000 | 100 to 1000 | 10 to 100 | 7.0
13 | C=CC(=O)N1CCN(C(=O)c2cc(Sc3cnc(NC(=O)C4CC4)s3)c(C)cc2C)C[C@H]1C#N [Compound 118] | ≥ 10000 | < 10 | < 10 | < 10 | 
14 | C=CC(=O)N1CCN(C(=O)c2cc(Sc3cnc(NC(=O)c4cccc(CN(C)C)c4)s3)c(C)cc2C)C[C@H]1C#N [Compound 125] | < 10 | < 10 | 10 to 100 | < 10 | 2.3
15 | C=CC(=O)N1CC[C@@H](N(C)C(=O)c2cc(Sc3cnc(Nc4ccccn4)s3)c(C)cc2OC)C1 [Compound 154, (R)-N-(1-acryloylpyrrolidin-3-yl)-2-methoxy-N,4-dimethyl-5-((2-(pyridin-2-ylamino)thiazol-5-yl)thio)benzamide] | < 10 | < 10 | < 10 | < 10 | 1.01
16 | C=CC(=O)N1CCN(C(=O)c2cc(Sc3cnc(NC(=O)C4CC4)s3)c(Cl)cc2C)C[C@H]1CC [Compound 101] | 10 to 100 | 100 to 1000 | ≥ 10000 | 100 to 1000 | 14.4
17 | C=CC(=O)N1CCN(C(=O)c2cc(Sc3cnc(NC(=O)C4CC4)s3)c(F)cc2C)C[C@H]1C [Compound 82] | 10 to 100 | 100 to 1000 | ≥ 10000 | 100 to 1000 | 9.2468

Other lines, results leading:

Row | IC50 [1] [nM] | IC50 [2] [nM] | IC50 [3] [nM] | IC50 [4] [nM] | TXK/ITK [4] | SMILES
18 | < 10 | 100 to 1000 | 100 to 1000 | 10 to 100 | 3.2627 | C=CC(=O)N1CCN(C(=O)c2cc(Sc3cnc(NC(=O)C4CC4)s3)c(C)cc2C)CC1 [Compound 73]
19 | < 10 | 10 to 100 | 10 to 100 | 10 to 100 | 21.91 | C=CC(=O)N1CCN(C(=O)c2cc(Sc3cnc(NC(=O)c4ccc(N5CCN(C(=O)CCOCCOCCOCCOCCNC(=O)CCCCC6SCC7NC(=O)NC76)CC5)cc4)s3)c(C)cc2OC)CC1 (stereo not drawn) [Compound 41]
20 | < 10 | 100 to 1000 | 100 to 1000 | 10 to 100 | 14.491 | C=CC(=O)N1CCN(C(=O)c2cc(Sc3cnc(NC(=O)c4ccc(N5CCN(C(=O)OC(C)(C)C)CC5)cc4)s3)c(C)cc2OC)CC1 [Compound 40]
21 | 100 to 1000 | ≥ 10000 | ≥ 10000 | 1000 to 10000 | 1.5 | C=C(C)C(=O)N1CCCN(C(=O)c2cc(Sc3cnc(NC(=O)c4cccc(CN(C)C)c4)s3)c(C)cc2OC)CC1 [Compound 39]
22 | < 10 | 100 to 1000 | 100 to 1000 | 10 to 100 | 10.586 | C=CC(=O)N1CCN(C(=O)c2cc(Sc3cnc(NC(=O)C4CC4)s3)ccc2OC)CC1 [Compound 78]
23 | < 10 | 100 to 1000 | 10 to 100 | 10 to 100 | 18.84 | C=CC(=O)N1CCN(C(=O)c2cc(Sc3cnc(NC(=O)c4ccsc4)s3)c(C)cc2OC)[C@@H](C)C1 [Compound 144, (S)-N-(5-((5-(4-acryloyl-2-methylpiperazine-1-carbonyl)-4-methoxy-2-methylphenyl)thio)thiazol-2-yl)thiophene-3-carboxamide]
24 | 10 to 100 | 1000 to 10000 | 1000 to 10000 | 10 to 100 | 0.804 | C=CC(=O)N1CCN(C(=O)c2cc(Sc3cnc(NC(=O)C4CC4)s3)c(C)cc2OC)CC[C@H]1C [Compound 54]
25 | < 10 | 10 to 100 | < 10 | < 10 | 8.2157 | C=CC(=O)N1CCN(C(=O)c2cc(Sc3cnc(Nc4ccccn4)s3)c(C)cc2OC)CC1 [Compound 98]
26 | < 10 | 100 to 1000 | 10 to 100 | 10 to 100 | 33.121 | C=CC(=O)N1CCN(C(=O)c2cc(Sc3cnc(NC(=O)c4ccc(CN(C)C)cc4)s3)c(C)cc2OC)CC1 [Compound 34]
27 | < 10 | 100 to 1000 | 100 to 1000 | 100 to 1000 | 19.123 | C=CC(=O)N1CCN(C(=O)c2cc(Sc3cnc(NC(=O)c4cocn4)s3)c(C)cc2OC)CC1 [Compound 92]
28 | < 10 | 100 to 1000 | 100 to 1000 | 10 to 100 | 11.966 | C=CC(=O)N1CCN(C(=O)c2cc(Sc3cnc(NC(=O)c4nccn4C)s3)c(C)cc2OC)CC1 [Compound 96]
29 | 10 to 100 | 1000 to 10000 | 1000 to 10000 | 1000 to 10000 | 37.652 | C=CC(=O)N1CCCN(C(=O)c2cc(Sc3cnc(NC(=O)c4cccc(CN5CCOCC5)c4)s3)c(C)cc2OC)CC1 [Compound 49]
30 | < 10 | 10 to 100 | 10 to 100 | < 10 | 4.1551 | C=CC(=O)N1CC2(CCN(C(=O)c3cc(Sc4cnc(NC(=O)C5CC5)s4)c(C)cc3OC)C2)C1 [Compound 45]
31 | 100 to 1000 | ≥ 10000 | ≥ 10000 | ≥ 10000 | 15.564 | C=CC(=O)N1CCCN(C(=O)c2cc(Sc3cnc(NC(=O)C(C)(C)C)s3)c(C)cc2OC)CC1 [Compound 57]
32 | < 10 | 100 to 1000 | 10 to 100 | < 10 | 3.4072 | C=CC(=O)N1CCC2(C1)CN(C(=O)c1cc(Sc3cnc(NC(=O)C4CC4)s3)c(C)cc1OC)C2 [Compound 46]
33 | < 10 | < 10 | < 10 | < 10 |  | C=CC(=O)N1CCN(C(=O)c2cc(Sc3cnc(NC(=O)c4cccc(CN(C)C)c4)s3)c(C)cc2OC)C[C@H]1C#N [Compound 124]
34 | < 10 | 1000 to 10000 | 1000 to 10000 | 100 to 1000 | 25.051 | C=CC(=O)N1CCN(C(=O)c2cc(Sc3cnc(NC(C)=O)s3)c(C)cc2OC)C[C@H]1C [Compound 11]
35 | < 10 | 100 to 1000 | 100 to 1000 | 10 to 100 | 6.7674 | C=CC(=O)N1CCN(C(=O)c2cc(Sc3cnc(NC(=O)C4CC4)s3)c(C)cc2OC)C[C@@H]1C [Compound 22]
36 | < 10 | 1000 to 10000 | 100 to 1000 | 100 to 1000 | 79.163 | C=CC(=O)N1CCN(C(=O)c2cc(Sc3cnc(NC(=O)c4cccc(CN(C)C)c4)s3)c(C)cc2OC)CC1 [Compound 14]
37 | 10 to 100 | 1000 to 10000 | 1000 to 10000 | 100 to 1000 | 5.9566 | C=CC(=O)N1CCN(C(=O)c2cc(Sc3cnc(NC(C)=O)s3)c(C)cc2OC)CC1(C)C [Compound 6]
